The values below come from a melting point compilation (Tetko et al.; mined from patent text by program, amines drawn as free bases though some values may be those of a salt).

A value given as a limit tells only on which side of the number the result lay.

The term melting point denotes the temperature of the solid-liquid transition. In turn, `Cc1ccccc1OC(C)C(=O)OC1CC(O)C=C2C=CC(C)C(CCC3CC(O)CC(=O)O3)C21` (mixture of isomers) came in with a melting point of 85 to 87 °C.

For `O=C(c1ccc(Oc2ccc(S(=O)c3ccc(Oc4ccc(C(=O)C(Cl)(Cl)Cl)cc4)cc3)cc2)cc1)C(Cl)(Cl)Cl`, the melting point was 154 to 156 °C.

Consider `CCc1c2c(nc3cc(F)cc(F)c13)-c1cc3c(c(=O)n1C2)COC(=O)CC3(O)CC` (stereo not given), for which the melting point came to 255 °C.

`O=C(NCCCCCCCCCCCCNC(=O)c1ccc(OC(F)(F)F)cc1)c1ccc(OC(F)(F)F)cc1` registered a melting point of 158 to 159 °C.

In turn, `NC(=O)OC1CCN(C(=O)Cn2c(=O)sc3ccc(Cl)cc32)CC1` had a melting point of 210 to 212 °C.

Molecule `O=c1oc(C(F)F)nc2c(C(F)(F)F)cccc12` had a melting point of 82 °C.

Molecule `O=C1c2ccccc2C(=O)N1CCN1CCC(=C2c3ccccc3C=Cc3ccccc32)CC1` showed a melting point of 190 °C.

Molecule `ClCc1cnn(-c2ccc(Cl)c(Cl)c2)c1` showed a melting point of 66 to 67 °C.

Consider `CCCCCCCCCC(=O)Oc1ccc(/C=C2/C(=O)Nc3cc(OC)c(OC)cc32)cc1`, for which the melting point lay in the range of 138 to 140 °C.

Molecule `COc1ccc(Cl)cc1C(=O)NCCc1ccc([N+](=O)[O-])cc1` had a melting point of 159 to 160 °C.

`O=C(c1ccc(C2CCCCC2)cc1)N1Cc2ccccc2Nc2ccccc21` gave a melting point of 175 to 176 °C.

`CN(C)C=NS(=O)(=O)c1ccccc1-c1ccc(Cn2c(-c3ccccc3)nc(Cl)c2C=O)cc1` returned a melting point of 193 °C.

`O=C(Cc1ccccc1O)N1C[C@@H]2SCCC(c3ccccc3)(c3ccccc3)[C@@H]2C1` (racemic) came in with a melting point of 248 °C.

`C=CCOC(=O)OCN1C(=O)C(c2cn(C)c3ccccc23)=C(c2cn(C)c3cc([N+](=O)[O-])ccc23)C1=O` gave a melting point of 191 to 194 °C.

Consider `CC(C)(C)OC(=O)C1CCCN2C(=O)CC(=O)N12` (stereo not given), for which the melting point was 121 to 122 °C.

In turn, `CCCCn1c(=O)[nH]c2cccnc2c1=O` returned a melting point of 200 to 210 °C.

Molecule `COc1ccc(-c2sc3cc(OC)ccc3c2C(=O)c2ccccc2)cc1` showed a melting point of 100 to 102 °C.

`CCC(CC)Nc1cc(C)nc(Oc2c(C)cc(C)cc2C)c1NC(=O)CCl` returned a melting point of 152 to 154 °C.

In the case of `CC(=O)c1ccc(NC(=O)NCC2(c3ccccc3)CCCCC2)cc1`, the melting point fell in the range of 164 to 165 °C.

Molecule `CCc1cc(N(C)Cc2ccc3oc(-c4ccccc4C#N)c(Br)c3c2)n2nccc2n1` gave a melting point of 130 to 136 °C.

The molecule `COCCNS(=O)(=O)c1cccc(Nc2nccc(-c3sc(N)nc3C)n2)c1` gave a melting point of 179 to 180 °C.

Molecule `Nc1ccc2c(c1)nc(/C=C/c1ccccc1)n2-c1ccccn1` came in with a melting point of 146 to 148 °C.

For the molecule `CCCCn1cc(C(=O)C(=O)O)c2cc(-c3ccc(Cl)cc3)ccc21`, the melting point was in the range of 136 to 137 °C.

As to `CCOc1ccc(C2=NN(C3CCN(S(C)(=O)=O)CC3)C(=O)[C@@H]3CC=CC[C@H]23)cc1OCC`, the melting point was 99 to 102 °C.

The molecule `CC(=O)OCC(=O)N(C)C` came in with a melting point of 52 to 53 °C.

`CC(C)c1ccc(C(=O)c2ccc(CC(=O)O)n2C)cc1` gave a melting point of 98 to 101 °C.

Consider `CC(C)(C)[Si](C)(C)OC1CCCc2cnc3cc(OCc4ccccc4[N+](=O)[O-])ccc3c21` (stereo not given), for which the melting point fell in the range of 150 to 152 °C.

For `CCCCCc1ccc(-c2ccc(C(C)=O)cc2)cc1`, the melting point was in the range of 81 to 82 °C.

Regarding `O=C(O)C1CCc2cc(C3CCCCCC3)c(Cl)cc21` (stereo not given), the melting point lay within 138 to 140 °C.

In turn, `COC1(c2nc3c(F)cccc3s2)C=CC(=NS(=O)(=O)c2ccc(C)cc2)C=C1` (stereo not given) gave a melting point of 176 °C.

The molecule `CCOC(=O)c1snnc1SC` gave a melting point of 64.5 to 65.5 °C.

The molecule `CCC(CC)c1nn(-c2ccc(C(F)(F)F)cn2)cc1CCCOc1ccccc1CC(=O)O` showed a melting point of 65 to 66 °C.

Regarding `O=C(NCCC(=O)N1CCOCC1)c1ccc(-c2ccc3nnn(Cc4ccc5ncccc5c4)c3n2)cc1F`, the melting point fell in the range of 212 to 215 °C.

Molecule `NC(=O)NNCc1ccc(OCCc2coc(-c3ccccc3)n2)cc1` yielded a melting point of 192 to 196 °C.

`CCCCCCNC(=O)C1CCCN1` (stereo not given) came in with a melting point of 61 to 64 °C.

On to `C[C@H]1C[C@@](O)(c2cccc(S(=O)(=O)c3ccc4c(c3F)CCC(=O)N4C)c2)CCO1`, for which the melting point lay in the range of 149 to 151 °C.

Consider `COC(=O)C1=CCCN(C2CCc3ccc(OC)cc3C2)C1` (stereo not given), for which the melting point is 65 to 66 °C.

In turn, `COC1=CC(=O)c2c(O)c(CO)c(CC(C)O)c(O)c2C1=O` (stereo not given) displayed a melting point of 206 to 212 °C.

The molecule `Cc1c(N2CC3CN(Cc4ccccc4)CC3C2)nn2c(-c3ccnc(NC(=O)OC(C)(C)C)c3)c(-c3ccc(F)cc3)nc2c1C` (stereo not given) gave a melting point of 214 to 216 °C.

Consider `NC(=O)c1cc2c(Oc3ccc(C(=O)NCCN4CCOCC4)cc3)cncc2s1`, for which the melting point lay within 214 to 216 °C.

As for `COc1cc2c(cc1Cl)C(=O)CC(C)O2` (stereo not given), the melting point was 96 to 100 °C.

For the molecule `CC(C)(C)N[C@H](Cc1ccccc1)C(=O)O`, the melting point lay in the range of 79 to 80 °C.

`CCCCc1oc2ccccc2c1C(O)c1ccc(-c2ccc(OCC(=O)O)cc2)cc1` (stereo not given) had a melting point of 111 to 113 °C.

`O=C1CCC2C3Cc4ccc(O)cc4C2(CCN3CC2CC2)C1` (stereo not given) displayed a melting point of 125 to 127 °C.

Take `O=c1c2cccc3c2n(c(=O)n1CC(O)CO)-c1cc(C(F)(F)F)ccc1S3` (stereo not given): the melting point is 159 to 162 °C.

Take `Cc1nc(-n2cnn(Cc3ccc(F)cc3)c2=O)sc1C(=O)NCc1nccs1`: the melting point fell in the range of 189 to 190 °C.

In turn, `COc1ccccc1NC(=S)c1ccc(C(F)(F)F)cc1` registered a melting point of 118 to 120 °C.

`O=c1c(CCCc2ccncc2)cc2cccnc2n1-c1ccc(Cl)c([N+](=O)[O-])c1`: the melting point was 136 to 137 °C.

As for `COc1ccc(C(=O)/C(Cc2cc(OC)c(OC)c(OC)c2)=C(/C(=O)O)c2ccc3c(c2)OCO3)cc1`, the melting point is 192 to 193 °C.

`Brc1ccn2nc(-c3ccccc3)nc2c1` yielded a melting point of 189 to 191 °C.

On to `CCc1c(C(C)C)nc(C(C)C)c(CO)c1-c1ccc(F)cc1`, for which the melting point lay within 126 to 129 °C.

Regarding `CCOC(=O)c1cc(Oc2ccc3c(C(=O)O)cccc3c2)ncn1`, the melting point lay within 211 to 212 °C.

`CCOc1ccc(Br)c(Cl)c1F` registered a melting point of 48 to 48.5 °C.

The molecule `COc1cc(C#N)ccc1C(=O)Nc1cc(Cl)c(Cl)cc1N` came in with a melting point of more than 250 °C.

In the case of `COc1cc(N2CCC(N3CCOCC3)C2)ccc1Nc1ncc2ccc(-c3ccccc3OC)n2n1` (stereo not given), the melting point was in the range of 80 to 87 °C.
